# Experimental data from patent US11970497B2, “Tricyclic AKR1C3 dependent KARS inhibitors” (Novartis AG, priority 2019, dated 2024).
# Key:
# Assay in all cases: Expanded lung cancer cell line proliferation assay
# Format in all cases: cell-based
# NCI-H460 = conditions: Homo sapiens; NCI-H460, 72 h, average of PrestoBlue and Cell Titer Glo; AKR1C3 865.3 TPM; read-out: Absolute Qualified AC50
# Outline: (§1)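 72 h growth assay, RPMI-1640/10% FBS, 37 °C/5% CO2; 8-pt dose, 1 μM top; PrestoBlue + CTG multiplex; AC50 = mean of both read-outs.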
# NCI-H1838 = conditions: Homo sapiens; NCI-H1838, 72 h, average of PrestoBlue and Cell Titer Glo; AKR1C3 1.8 TPM; read-out: Absolute Qualified AC50
# Outline: as §1
# LCLC-97TM1 = conditions: Homo sapiens; LCLC-97TM1, 72 h, average of PrestoBlue and Cell Titer Glo; AKR1C3 1.9 TPM; read-out: Absolute Qualified AC50
# Outline: as §1
# EBC-1 = conditions: Homo sapiens; EBC-1, 72 h, average of PrestoBlue and Cell Titer Glo; AKR1C3 92.4 TPM; read-out: Absolute Qualified AC50
# Outline: as §1
# NCI-H1581 = conditions: Homo sapiens; NCI-H1581, 72 h, average of PrestoBlue and Cell Titer Glo; AKR1C3 1.9 TPM; read-out: Absolute Qualified AC50
# Outline: as §1
# NCI-H2030 = conditions: Homo sapiens; NCI-H2030, 72 h, average of PrestoBlue and Cell Titer Glo; AKR1C3 232.7 TPM; read-out: Absolute Qualified AC50
# Outline: as §1
# NCI-H1650 = conditions: Homo sapiens; NCI-H1650, 72 h, average of PrestoBlue and Cell Titer Glo; AKR1C3 1.3 TPM; read-out: Absolute Qualified AC50
# Outline: as §1
# NCI-H2172 = conditions: NCI-H2172, 72 h, average of PrestoBlue and Cell Titer Glo; AKR1C3 1522.4 TPM; read-out: Absolute Qualified AC50
# Outline: as §1
# NCI-H2023 = conditions: NCI-H2023, 72 h, average of PrestoBlue and Cell Titer Glo; AKR1C3 1424.8 TPM; read-out: Absolute Qualified AC50
# Outline: as §1
# NCI-H1299 = conditions: Homo sapiens; NCI-H1299, 72 h, average of PrestoBlue and Cell Titer Glo; AKR1C3 1.3 TPM; read-out: Absolute Qualified AC50
# Outline: as §1
# HLC-1 = conditions: HLC-1, 72 h, average of PrestoBlue and Cell Titer Glo; AKR1C3 expression: no data available; read-out: Absolute Qualified AC50
# Outline: as §1
# VMRC-LCD = conditions: 72 h, average of PrestoBlue and Cell Titer Glo, AKR1C3 expression: no data available, read-out: Absolute Qualified AC50
# Outline: as §1
# HCC2108 = conditions: HCC2108, 72 h, average of PrestoBlue and Cell Titer Glo; AKR1C3 0.5 TPM; read-out: Absolute Qualified AC50
# Outline: as §1
# LK2 = conditions: Homo sapiens, LK-2; LK2, 72 h, average of PrestoBlue and Cell Titer Glo; AKR1C3 1107 TPM; read-out: Absolute Qualified AC50
# Outline: as §1
SMILES,AC50 (NCI-H460) [µM],AC50 (NCI-H1838) [µM],AC50 (LCLC-97TM1) [µM],AC50 (EBC-1) [µM],AC50 (NCI-H1581) [µM],AC50 (NCI-H2030) [µM],AC50 (NCI-H1650) [µM],AC50 (NCI-H2172) [µM],AC50 (NCI-H2023) [µM],AC50 (NCI-H1299) [µM],AC50 (HLC-1) [µM],AC50 (VMRC-LCD) [µM],AC50 (HCC2108) [µM],AC50 (LK2) [µM]
"CN1c2ccc(F)cc2C(=O)CC12CCN(C(=O)NCc1ccc(F)c(NCCO)c1)CC2 [Example 36, 6′-fluoro-N-(4-fluoro-3-((2-hydroxyethyl)amino)benzyl)-1′-methyl-4′-oxo-3′,4′-dihydro-1′H-spiro[piperidine-4,2′-quinoline]-1-carboxamide]",0.268,> 1,> 1,> 1,> 1,0.648,> 1,> 1,0.347,> 1,> 1,0.474,> 1,> 1
O=C1CC2(CCN(C(=O)NCc3ccc(F)cc3)CC2)Nc2ccc(F)cc21 [Example 40],0.05,> 1,> 1,> 1,> 1,0.364,> 1,0.149,0.063,> 1,> 1,0.33,> 1,> 1
